Assays:
[1] = octanol-water partition coefficient, shake-flask, ICP-MS; assay type: physicochemical; conditions: n-octanol / phosphate buffer 10 mM pH 7.4, room temperature
Description: Lipid-water partition coefficient. The shake-flask method was used to measure the partition coefficients of CDDP, I and II. Briefly, a mixture containing equal volumes of n-octanol and phosphate buffer (10 mM, pH 7.4) was shaken on a mechanical shaker at room temperature for 24 h. Complexes (10 mM) in phosphate buffer (presaturated with n-octanol) were mixed with an equal volume of n-octanol (presaturated with phosphate buffer), and the mixture was shaken for 24 h at room temperature. Centrifugation was carried out at 2500 rpm for 30 min to separate the two phases. The aqueous layer was carefully separated, and the Pt content in the initial and final aqueous phases was analyzed by inductively coupled plasma mass spectrometry (ICP-MS). The log PO/W was measured using the following equation: log PO/W = log [(Ptinitial ‒ Ptfinal)/Ptfinal].

[2] = reduction by ascorbic acid (AsA) followed by 1H-/195Pt-NMR; assay type: physicochemical; conditions: 20 mM, 8 equiv. AsA, 5:1 d6-DMSO:D2O, 37 °C, dark
Description: Reduction of I and II. Samples were prepared by reacting I or II (20 mM) with 8 equiv. AsA in 5:1 d6-DMSO:D2O solutions. The time course of the reaction was monitored by ^1H-NMR and ^195Pt-NMR after incubation of the samples were incubated at 37 °C for 0, 3, 6, 12, 24, 36, 48, 60, 72, 84, 96, or 120 h in the dark.

[3] = test system: Pan02 tumor tissue immune cells; assay: flow cytometric analysis of immune cells in Pan02 tumor tissue; assay type: in vivo, mouse; conditions: Pan02 tumors; comparable to CDDP and CDDP + MSA-2 groups
Description: Flow cytometric analysis. To analyze the levels of immune cells in the tumor microenvironment, mice were sacrificed six days after the final treatment. The obtained tumors were cut into pieces and digested in T cell medium. Single-cell suspensions were obtained after filtration through nylon mesh and incubated with various antibodies. FACS tests were carried out on a flow cytometer, and the results were analyzed with NovaExpress. The following monoclonal antibodies (mAbs) were used for flow cytometry: anti-CD3-APC (17A2), anti-CD4-AF700 (RM4-5), anti-CD8-PE (53-6.7), anti-NK1.1-PE/Cy7 (PK136), anti-PD-1-FITC (29F. 1A12), anti-CD69-PE/Cy5 (H1.2F3).

[4] = H&E histology of major organs after treatment; assay type: in vivo, mouse; conditions: C57BL/6 mice after treatment, 10.0 μmol/kg
Description: Hematoxylin and eosin staining. Tissue samples were subjected to histopathological examination using hematoxylin and eosin (H&E) staining. Mouse organs (heart, liver, spleen, lungs and kidneys) were collected in 4% paraformaldehyde for proper fixation and then embedded in paraffin using a tissue embedding machine. Sections were prepared in an orderly manner by dewaxing, dehydration, and H&E staining. The tissue morphology was observed under a fluorescence microscope (Olympus BX41, Japan).

[5] = test system: BMDCs cultured with Pan02 cell CM; assay: IFN-β ELISA of BMDCs incubated with conditioned medium of drug-treated Pan02 cells; assay type: cell-based, mouse
Description: ELISA. Bone marrow-derived dendritic cells (BMDCs) were prepared according to the following method. Briefly, femurs and tibias were removed from 4-6 week-old C57BL/6 mice, and the bone marrow cells were isolated. The bone marrow cells were incubated in T cell medium [RPMI-1640 medium (with GlutaMAX), supplemented with 10% FBS, 1% HEPES, 1% NEAA, 1% sodium pyruvate, and 0.1% βME] containing 20 ng/mL GM-CSF for 6 days after erythrocyte lysis, during which time half of the medium was replaced with fresh T cell medium once and the cytokines were supplemented. Then, the BMDCs were harvested on day 7 for further study.
Pan02 tumor cells were treated with various drugs at a concentration of 5 μM for 48 h, and then the drug-pretreated tumor cell supernatant was obtained by centrifugation at a speed of 12000 rpm/min for 5 min and used as conditioned media (CM) subsequently.
BMDCs were cultured with 50% CM plus 50% fresh medium for 18 h. In addition, BMDCs were cultured with fresh medium containing different complexes or mixtures (15 μM CDDP and I, a mixture of I and 8 equiv. AsA, and equal AsA). Then, all the BMDC supernatant was collected and centrifuged for subsequent cytokine analysis using ELISA kits, which were performed according to the manufacturer’s instructions.

[6] = test system: BxPC3 cells; assay: 72 h MTT cytotoxicity, BxPC3; assay type: cell-based, human
Description: (§1) Cytotoxicity. Tumor cells were cultured overnight after inoculation in RPMI-1640 medium or DMEM supplemented with 10% FBS. All cultures were maintained in an incubator in a highly humidified atmosphere of 95% air with 5% CO2 at 37 °C. Growth inhibition was measured with an MTT assay. Briefly, 2800–7000 cells per well in culture medium (100 μL) were plated in 96-well plates (Corning). The cells were treated in triplicate with different concentrations of complexes at 37 ℃ for 72 h. Stock solutions of CDDP and oxoplatin were prepared in PBS, while stock solutions of conjugates I and II and the ligand MSA-2 were prepared in DMSO. The stock solutions were diluted in complete medium (DMSO < 0.5%). An aliquot of MTT solution (40 μL, 2.5 mg·mL^–1) in PBS buffer was added to each well and incubated for 4 h. The supernatant was removed and DMSO (150 μL) was added to solubilize the formazan crystals. The amount of formazan was determined using a microplate reader at 570 nm after the plates were shaken for 30 min. The optical density (OD) was used to calculate the percentage of viable cells relative to untreated control values. Background readings for MTT incubated in cell-free medium were subtracted from each value before calculation. […] The mean IC50 values were calculated using data from three replicates.

[7] = test system: Pan02 tumors; assay: scRNA-seq of Pan02 tumors; assay type: in vivo, mouse; conditions: scRNA-seq at treatment endpoint, versus untreated
Excerpt: ScRNA-seq. Tumors were excised from individual mice after treatment using a dissecting microscope and pooled. The tumors were cryopreserved in FBS + 10% DMSO. Samples were subsequently thawed, washed, sorted to isolate living cells and then performed on the 10X Genomics 5’ Chromium v2.0 platform according to the manufacturer’s instructions. Libraries were generated per the manufacturer’s protocol and sequenced on an Illumina HiSeq 2500 with the “rapid run” mode according to the standard 10X Genomics protocol. Data analysis was conducted by Singleron Biotech. Co. Ltd. using Cellranger and R.
Cell type annotation. The cell type identity of each cluster was determined from the expression of canonical markers found in the DEGs using SynEcoSys database. Heatmaps displaying the expression of markers used to identify each cell type were generated by Seurat v3.12 DoHeatmap.

[8] = test system: MCF-7 cells; assay: 72 h MTT cytotoxicity, MCF-7; assay type: cell-based, human
Description: as §1

For COc1cc2cc(C(=O)CCC(=O)[O][Pt]([NH2])([NH2])([OH])([Cl])[Cl])sc2cc1OC [conjugate I], the “octanol-water partition coefficient (logPo/w)” value [1] was 0.9, the “time at which reduction by AsA finished” value [2] was 24 h and the “infiltration of CD8+ and CD4+ T cells” value [3] was “slightly increased”. The “histological findings in major organs” value [4] was “only mild vacuolar degeneration in the liver and aggregates containing only a few inflammatory cells in the lungs”, the “IFN-β secretion by BMDCs pretreated with MyD88 inhibitor, treated Pan02 cell CM” value ([5]; MyD88 inhibitor TJ-M2010-5) was “significant decrease” and the “IFN-β secretion by BMDCs incubated with treated Pan02 cell CM” value ([5]; Pan02 treated 48 h at 5 μM (Pt-E-I 20 μM), BMDCs 50% CM, 18 h) was “markedly increased”. The IC50 [6] was 20 ± 10 nM, the “frequencies of CD8 effector T, CD4 T and NK cells” value [7] was “increased” and the “percentage of tumor cells” value [7] was “decreased”. The IC50 [8] was 300 ± 100 nM.
